Entries after “also recorded” stand apart in the source; their conditions may differ. Read-outs that look alike come from different tables or passages of the source.
Tests used:
CYP6P3 = conditions: cited from earlier work
[1] = tested on: CYP6M2, CYP6P3 and CYP6P9a; experiment: Pyrethroid metabolism (insecticide depletion), across CYP6M2, CYP6P3 and CYP6P9a; format: in vitro ADME, Anopheles gambiae and An. funestus; conditions: for vulnerability for metabolic attack by the three enzymes, rank in words: CYP6P3, CYP6M2 and CYP6P9a, among the six pyrethroids
From the text: (§1) In this study, the half maximal inhibitory concentration (IC50), which provides a value for inhibition of each P450 by each pyrethroid (also referred to as ‘binding affinity’), and the percentage depletion, which gives a value for metabolism of each pyrethroid by each P450 (also referred to as vulnerability to metabolic attack), were both included as parameters to establish a P450s structural activity relationship model. This model was used to understand both the chemistry of the pyrethroids and the interaction with mosquito P450s that function as monooxygenases in metabolic resistance, to predict cross-resistance liabilities in vivo. […] A low percentage depletion indicates low metabolism of the pyrethroid, which means that it may be less vulnerable to resistance mediated by P450s.
The values for percentage depletion (metabolism) of each pyrethroid by three of the enzymes CYP6M2, CYP6P3 and CYP6P9a, which were expressed in a single plasmid construct, were also extracted from the same sources and used for the comparative analysis.

CYP6M2 = conditions: Incubation time 2h; mean ± SD; ref [38], [41]; cited from earlier work
[2] = tested on: P450 panel (CYP6M2, CYP6P3, CYP6P9a, CYP6P2, CYP9J5, CYP6Z3, CYP6Z2); experiment: P450 inhibition, whole P450 panel (mean across P450s); format: biochemical, Anopheles gambiae and An. funestus; conditions: for IC50: Anopheles gambiae and Anopheles funestus, mean of the seven P450s of Table S2, read-out: IC50 Mean across P450s
From the text: as §1, with “Cytochrome P450 inhibition assays using fluorogenic probe substrates have become commonplace in drug discovery screening cascades and are a rapid method of screening for insecticide interactions with mosquito P450s to predict insecticide binding, metabolism, cross-resistance and synergism. In” for “In”
In addition, inhibition activity data for these pyrethroids exposed to CYP6Z3 from the An. gambiae Kisumu strain were also generated (Additional file 1).

CYP6P2 = conditions: read-out: IC50 CYP6P2, inhibition of diethoxyfluorescein metabolism, cited from earlier work
Ae. aegypti = experiment: WHO adult susceptibility test on field samples, Ae. aegypti; format: in vivo, Aedes aegypti; conditions: standard diagnostic doses
From the text: The analyses conducted using data from An. gambiae (s.l.) samples were repeated using data from the An. funestus subgroup, An. arabiensis, An. coluzzii, An. funestus and An. gambiae samples (Additional file 2). The same approach was also used for susceptibility test data from Aedes albopictus and Ae. aegypti to investigate whether the same relationships could be detected in these vectors of arboviruses, as detailed in Additional file 3.
Additional File 3: Cross-resistance to pyrethroids within wild populations of Aedes vectors […]
If structural diversity within the pyrethroids is also associated with divergence in resistance within the Aedes vectors of arboviruses, this would lend weight to the findings for malaria vectors presented in the main manusc ript. Like the Anopheles vectors, target-site mutations and metabolic resistance are thought to be the main resistance mechanisms in Aedes mosquitoes. At least ten mutations in the Aedes aegypti Vgsc gene have been identified and the most widespread mutation, […]
mutations and is also associated with DDT resistance. More recently, the V1016G mutation has been found in Ae. albopictus in Viet Nam and Italy, and both this allele and the F1534C and F1534S […]
expression of cytochrome P450s has also been implicated in pyrethroid resistance within Aedes mosquitoes and there is evidence that metabolic resistance can confer cross -resistance to multiple pyrethroids. For example, over-expression of CYP9J28 is associated with metabolic resistance to […]
target site- and P450-mediated resistance in Ae. aegypti strains found variation in resistance to seven pyrethroids and hypothesised that some patterns of resistance could be linked to structural differences, but also noted that general conclusions are challenging to make without a greater number of compounds with a single modification to compare. No studies of structure activity relationships using a wide range of pyrethroids and P450s from Aedes mosquitoes have been conducted to-date, but data on resistance in wild populations are available. A wider range of pyrethroids are more typically tested by studies of resistance in Aedes vectors, compared to Anopheles vectors, although these studies are also more varied in terms of diagnostic dose, bioass ay method and life cycle stage, making comparisons across studies difficult. Here we selected studies that used a common experimental design and investigated correlations in resistance to pairs of pyrethroids mirroring part of the work on Anopheles vectors presented in the main manuscript.
We identified all instances within a public insecticide resistance database where an Aedes field sample had been subdivided among tests for different pyrethroids. We then identified the most commonly used bioassay type across the new pyrethroid dataset, which was the WHO adult susceptibility test as described for malaria vectors, and the most commonly used diagnostic dose for […]
each compound (Table S2). […]
removed. Paired results were then extracted, and the mean values for the Pearson’s correlation coefficient were calculated for each pyrethroid pair using 1,000 bootstaps in SPSS Statistics v25.
Table S5. Diagnostic doses and data volumes for each pyrethroid.
Pyrethroid Most common dose Number of data points
The number of data points available for each pyrethroid from an Ae. aegypti sample that was used to test at least one other pyrethroid, using standard WHO susceptibility tests and standard diagnostic doses, is given.

Anopheles arabiensis = conditions: Sudan, WHO Bioassay 1998, cited from earlier work
Anopheles funestus = conditions: F1, house resting indoors, WHO Bioassay 1998, cited from earlier work
[3] = tested on: An. funestus strain, FUMOZ-R; design: method as in PMID 26930058; conditions: strain with upregulated P450 levels without any target-site mutations; ref [47]; cited from earlier work
[4] = read-out: IC50 CYP6P3, inhibition of diethoxyfluorescein metabolism, footnote b, ref Yunta et al. 2019[10]
[5] = mean ± SD across CYP6M2, CYP6P3, CYP6P9a
[6] = recombinant P450s, probe diethoxyfluorescein
[7] = footnote b, ref Yunta et al. 2019[10]
[8] = Pair 3 λ-cyhalothrin vs etofenprox, N 21 paired Ae. aegypti samples
[9] = Pair 8 permethrin vs λ-cyhalothrin, N 56 paired Ae. aegypti samples
[10] = Pair 9 deltamethrin vs λ-cyhalothrin, N 67 paired Ae. aegypti samples
[11] = ID 200047, F1, larval collection, 9/2007-11/2007, Elmaygoma, ref Seidahmed OME et al. Eastern Mediterranean Health Journal. 2012;18(7):769-76
[12] = ID 200044, 4/2009-4/2010, Kalungama, Malawi, ref Wondji CS et al. Proc Natl Acad Sci U S A. 2012;109(47):19063-70
[13] = ID 200045, 4/2009-4/2010, Chinkole, Malawi, ref Wondji CS et al. Proc Natl Acad Sci U S A. 2012;109(47):19063-70
[14] = ID 200048, 3/2000-7/2002, Catembe, Mozambique, ref Casimiro S et al. J Med Entomol. 2006;43(2):267-75
[15] = Pair 1 deltamethrin vs etofenprox, N 29 paired Ae. aegypti samples
[16] = Pair 6 deltamethrin vs permethrin, N 136 paired Ae. aegypti samples
[17] = ID 200117, 4/2009-11/2009, Tororo, Uganda, ref Morgan JC et al. PLoS One. 2010;5(7)
[18] = footnote a, ref Yunta et al. 2016[8]
[19] = Pair 4 permethrin vs etofenprox, N 31 paired Ae. aegypti samples

SMILES	IC50 (CYP6P3; [4]) [µM]	vulnerability for metabolic attack by the three enzymes, rank in words [1]	% Insecticide depletion Mean across P450s [1, 5] [%]	% Insecticide depletion CYP6M2 (CYP6M2) [%]	IC50 [2, 6] [µM]	IC50 (CYP6P2; [7]) [µM]	Mean percent mortality (SE) (Ae. aegypti; [8])	Mean percent mortality (SE) (Ae. aegypti; [9])	Mean percent mortality (SE) (Ae. aegypti; [10])	mortality (Anopheles arabiensis; [11])	mortality (Anopheles funestus; [12])	mortality (Anopheles funestus; [13])	mortality (Anopheles funestus; [14])	Mean percent mortality (SE) (Ae. aegypti; [15])	Mean percent mortality (SE) (Ae. aegypti; [16])	mortality (Anopheles funestus; [17])	effectiveness with or without piperonyl butoxide (PBO), in words [3]	IC50 (CYP6P2; [18]) [µM]	Mean percent mortality (SE) (Ae. aegypti; [19])	also measured
Cc1c(COC(=O)[C@@H]2[C@H](/C=C(\Cl)C(F)(F)F)C2(C)C)cccc1-c1ccccc1 (racemic) [Bifenthrin, bifenthrin]	3.5	lowest vulnerability	56.3	38.9 ± 1.6	9.8	10.7	–	–	–	–	–	–	–	–	–	–	–	–	–	binding to the P450s panel, rank in words ([2]; among the six pyrethroids): lowest binding
CC1(C)[C@H](C(=O)O[C@H](C#N)c2cccc(Oc3ccccc3)c2)[C@@H]1/C=C(\Cl)C(F)(F)F (racemic) [λ-Cyhalothrin, λ-cyhalothrin]	9.6	–	66.6 ± 17.0	49.4 ± 0.5	7.2	4.8	72.40 (4.52) percent	84.52 (3.40) percent	74.16 (3.55) percent	98.9	34.3	60	59.3	–	–	–	–	–	–	Mean percent mortality (SE) (Ae. aegypti; Pair 7 λ-cyhalothrin vs cyfluthrin, N 25 paired Ae. aegypti samples): 66.90 (5.01) percent
CC1(C)[C@H](C(=O)O[C@H](C#N)c2cccc(Oc3ccccc3)c2)[C@@H]1C=C(Br)Br [Deltamethrin, deltamethrin]	–	–	83.5 ± 24.2	–	–	–	–	–	85.64 (2.66) percent	99.5	51.2	68.5	55.2	90.68 (2.80) percent	88.10 (1.66) percent	39	only effective when partnered with PBO	5	–	IC50 (CYP6P3; read-out: IC50 CYP6P3, inhibition of diethoxyfluorescein metabolism, footnote a, ref Yunta et al. 2016[8]): 3.2 µM; Mean percent mortality (SE) (Ae. aegypti; Pair 10 deltamethrin vs cyfluthrin, N 72 paired Ae. aegypti samples): 88.43 (1.94) percent; mortality (Anopheles arabiensis; F0, larval collection, 10/2009-11/2009, El Managil, ref Abdalla H et al. Parasites Vectors. 2014;7:213): 92; mortality (Anopheles arabiensis; F0, larval collection, 10/2009-11/2009, Rufaa, ref Abdalla H et al. Parasites Vectors. 2014;7:213): 94; mortality (Anopheles arabiensis; F0, larval collection, 10/2009-11/2009, Wad El Hadad, ref Abdalla H et al. Parasites Vectors. 2014;7:213): 94; mortality (Anopheles arabiensis; F0, larval collection, 10/2010-11/2010, Wad El Hadad, ref Abdalla H et al. Parasites Vectors. 2014;7:213): 71; mortality (Anopheles arabiensis; F0, larval collection, 10/2010-11/2010, Wad Medani, ref Abdalla H et al. Parasites Vectors. 2014;7:213): 80; IC50 [2]: 5.5 µM
CCOc1ccc(C(C)(C)COCc2cccc(Oc3ccccc3)c2)cc1 [Etofenprox, etofenprox]	8.3	most vulnerable	89.0 ± 17.5	68.8 ± 1.1	7	4.7	16.81 (4.43) percent	–	–	–	–	–	–	21.59 (4.75) percent	–	–	–	–	21.09 (4.89) percent	Mean percent mortality (SE) (Ae. aegypti; Pair 2 cyfluthrin vs etofenprox, N 22 paired Ae. aegypti samples): 21.14 (5.32) percent; metabolism in words ([1]; by CYP6P3, CYP6M2 and CYP6P9a): strongly metabolised; also recorded: most depleted
CC1(C)C(C=C(Cl)Cl)C1C(=O)OCc1cccc(Oc2ccccc2)c1 (centres unmarked) [Permethrin, permethrin]	–	most vulnerable	–	58.5 ± 2.2	7.6	–	–	70.10 (3.99) percent	–	96	67.4	–	100	–	61.44 (2.40) percent	69	only effective when partnered with PBO	8.6	63.39 (5.36) percent	IC50 (CYP6P3): 6.8 µM; Mean percent mortality (SE) (Ae. aegypti; Pair 5 permethrin vs cyfluthrin, N 79 paired Ae. aegypti samples): 59.01 (3.18) percent; % Insecticide depletion Mean across P450s ([1]; Anopheles gambiae and An. funestus): 82.1 ± 21.3%

Reference: publication PMC7893915, “Assessing cross-resistance within the pyrethroids in terms of their interactions with key cytochrome P450 enzymes and resistance in vector populations” (Parasites & Vectors, 2021)
